Where two headings read alike, the source gives them in different places.
Assays:
[1] = target: DNA; assay: DNA binding/precipitation from solution
Description: The chemoprotective polyamines provided herein are also able to bind, denature and precipitate DNA from solution. As the skilled artisan will appreciate, as the concentration of polyamine is increased, there is a point where polyamine binding to helical B-DNA induces single-stranded ‘bubbles’ and conversion to other forms of DNA structure, such as Z-DNA (Feuerstein, B. et al., Nuc. Acids Res. 17:6883-6892, 1989; Basu, H. and Marton, L., Biochem. J. 244:243-246, 1987), as well as precipitating the DNA from solution.

[2] = tested on: 23SK skin cells; assay: Flow cytometry cell cycle distribution; format: cell-based, human
Description: FIGS. 5A-5D are cell histograms showing the results from flow cytometry analysis of chemoprotective polyamine-treated 23SK skin cells.
In FIG. 5, cell histograms showing the results from flow cytometry analysis of chemoprotective polyamine-treated 23SK skin cells are shown. […] The transient nature of the cell cycle block induced by chemoprotective polyamines is believed to be an important aspect of their efficacy, i.e., their ability to block cell cycle progression in stem cells during the course of chemo- or radiotherapy, and the resumption of normal stem cell division after a given cancer therapy course has been completed.

[3] = tested on: p21 protein in 23SK human skin cells; assay: p21 induction by western analysis; format: cell-based; conditions: 23SK cells, 30 hr exposure
Procedure: FIGS. 3A and 3B illustrate the level of induced p21 protein seen in diploid human fibroblasts after a 30 hr exposure to each of the indicated chemoprotective polyamines. […] In these experiments, the 23SK human skin cells were exposed for 30 hr to an “IC80” dose of each of the indicated chemoprotective polyamines and then lysed. Cell extracts were then prepared in order to measure p21 levels by western analysis (FIG. 3A).
FIG. 3 illustrates that chemoprotective polyamines are able to induce expression of the negative cell cycle regulatory protein, p21, after exposing the human skin cells to the polyamine molecules. […] In these experiments, the 23SK human skin cells were exposed for 30 hr to an “IC80” dose of each of the indicated chemoprotective polyamines and then lysed. Cell extracts were then prepared in order to measure p21 levels by western analysis (FIG. 3A). Although the ability of modified polyamines to induce p21 is known in the literature (Kramer, D. et al., Cancer Res. 59:1278-1286, 1999), it is a novel aspect of this invention that those chemoprotective polyamines with longer aliphatic “arms” were better able to induce expression of p21 as shown in FIG. 4.

[4] = tested on: primary, diploid fibroblasts isolated from human skin; assay: Growth inhibition of primary diploid human skin fibroblasts; format: cell-based; conditions: 50% inhibition of human skin fibroblast growth
Procedure: The in vitro growth inhibitory effects of certain of the chemoprotective polyamines of the invention were measured using primary, diploid fibroblasts isolated from human skin.

[5] = tested on: radiation-induced dermatitis on backs of rats; assay: Radiation-induced dermatitis in rat skin model; format: in vivo; conditions: for protective activity against radiation-induced dermatitis: 370 mM, vehicle 50:30:20, scored 13 days later
Procedure: To determine efficacy of chemoprotective polyamines in preventing radiation-induced dermatitis, adult rats were topically treated with the compounds before and after radiation treatment. Rats were exposed to medically relevant levels of radiation that could induce clinical radiation dermatitis. Sprague Dawley rats (Harlan Spraque Dawley) at 4-6 weeks-old were anesthetized with sodium pentobarbital at 40 mg/kg body weight (Sigma, St. Louis, Mo.) prior to radiation exposure. A defined area (1.5×2 cm) on the backs of rats was irradiated using a Mark I, Model 30, Cs 137 irradiator (J. L. Sheppard & Associates). Before topical drug treatment or irradiation, the backs of the rats were clipped using an Oster clipper at the closest setting. The rest of the body was protected from radiation exposure using a lead shield (2.5 cm thick). A dose response study was initially performed to reproduce relevant dermatitis that matched the Grade (I-IV) scale used to score the severity of radiation-induced dermatitis in humans. The severity of the dermatitis was scored 12-13 days post-irradiation at the peak of the dermal inflammation. […] Radiation dermatitis of Grade II-III was considered most clinically relevant, so a radiation dose of 8.7 Gy was typically used in the rats. The clipped back region on the rats was treated topically with aminothiol in delivery vehicle four times in the two hours immediately preceding irradiation (at −2 hr, −1 hr, −30 min, and −10 min; irradiation was at 0 min
The polyamines or amino thiols were prepared in a delivery vehicle, consisting of ethanol:propylene glycol:water, ranging from 0:95:5 to 50:30:20 depending upon the solubility characteristics of the topical molecule, and the degree of dermal penetration desired. A vehicle composed of an emulsion formed by sonication of ‘nonionic liposomes’ and isopropyl myristate was also used (Jayaraman, S. et al., J. Pharm. Sci. 85:1082-1084, 1996). In a commonly used protocol, 220 μl of topical drug/vehicle was applied to an area ˜2 cm×3 cm on the back in the 2 hr just prior to irradiation. Rats treated with only the delivery vehicle served as controls. Twelve to thirteen days post-radiation, the rats were evaluated for dermatitis within the irradiated area. In early studies, a modified scoring scale described by Masuda K. et al., Int. J. Radiation Oncol. Biol. Phys: 12, 1645 (1986) was used, and in later studies, including those described here, a simplified scoring system was used in which the percentage of the irradiated, rectangular field covered with scrab material was estimated between 0 and 100% to provide scores on a scale between 0 and 100.
This example relates to the use of a rat skin model to evaluate the efficacy of two amino thiol compounds in preventing radiation-induced dermatitis. To test whether topically-applied aminothiols could prevent the radiodermatitis caused by external beam radiotherapy, the rodent model described in Example 3 was slightly modified. Briefly, the radiodermatitis model involved: • i) shaving the backs of 6-7 week old rats or mice; • ii) applying four topical doses of aminothiol in a delivery vehicle composed of ethanol:propylene glycol (PG):water in the 2 hr prior to irradiation; • iii) irradiating a small, 3 cm^2 (1.5×2 cm) area on the animal's back (through a window in a lead plate) with 8.7 Gy of γ radiation from a Cs^137 source; and • iv) scoring the severity of the dermatitis 12-13 days later, at the peak of the inflammatory skin reaction. Radiodermatitis severity was scored by estimating the percentage of the irradiated field that was covered by scrab material.
Methods: Treatments were applied as described in Example 6.

[6] = tested on: cell cycle; conditions: Jeitner and Renton 1996; Snyder and Grdina 2000; Kramer et al. 1997; cited from earlier work
[7] = Expt. 1, read-out: DNA Bind/ppt. IC50 (uM), Expt. 1
[8] = Expt. 2, read-out: DNA Bind/ppt. IC50 (uM), Expt. 2
[9] = Expt. 1, read-out: IC50 (uM), Expt. 1
[10] = Expt. 2, read-out: IC50 (uM), Expt. 2

IC50 [1, 7] [µM] | Compound | Cell Cycle Distribution At IC80 Dose (%) G1 [2] [%] | Cell Cycle Distribution At IC80 Dose (%) G2/M [2] [%] | Cell Cycle Distribution At IC80 Dose (%) S [2] [%] | p21 fold-induction at IC80 Dose [3] [fold] | IC50 [4, 9] [µM] | IC50 [4, 10] [µM] | further results
82 | CCNCCCCNCCCCNCCCCNC/C=C(/CS)CNCCCCNCCCCNCCCCNCC [PrC-116] | 66 | 23 | 11 | 2.32 | 5.8 | – | IC50 [1, 8]: 63 µM
93 | CCNCCCCNCCCCNCCCCNCC=C(CNCC)CNCCCCNCCCCNCCCCNCC [PrC-112] | 61 | 16 | 23 | 2.45 | 2.53 | – | –
94 | CCNCCCCNC/C=C(/CS)CNCCCCNCC [PrC-114] | – | – | – | – | 850 | 240 | –
58 | CCNCCCCNCCCCNCCCCNCCCCNC/C=C(/CS)CNCCCCNCCCCNCCCCNCCCCNCC [PrC-117] | 86 | 3 | 11 | ~3.0 | 0.32 | 0.24 | IC50 [1, 8]: 57 µM; distribution within cell cycle compartments after drug removal ([2]; 72 hr treatment, then 48 hr in drug-free medium (FIG. 5D)): basically returned to that seen in cells previously untreated; cells in G1 compartment ([2]; treated 72 hr (FIG. 5C)): 86.23%; cells in S+G2 compartments ([2]; treated 72 hr (FIG. 5C)): 13.77%
35 | CCNCCCCNCCCCNCCCCNCCCCNCC=C(CNCC)CNCCCCNCCCCNCCCCNCCCCNCC [PrC-113] | 77 | 14 | 8 | 3.21 | 0.33 | 0.21 | –
2600 | NCCCNCCCCNCCCN [Spermine, spermine, reference compound] | – | – | – | – | – | – | IC50 for DNA binding/precipitation relative to most chemoprotective polyamines ([1]; spermine versus chemoprotective polyamines of Table 2): ~1,000 fold
88 | CCNCCCCNCCCCNCC=C(CNCC)CNCCCCNCCCCNCC [PrC-111] | 60 | 14 | 25 | 2.22 | 980 | 180 | –

Second part, the molecule before the results:

Compound | IC50 [1, 7] [µM] | Cell Cycle Distribution At IC80 Dose (%) G1 [2] [%] | Cell Cycle Distribution At IC80 Dose (%) G2/M [2] [%] | Cell Cycle Distribution At IC80 Dose (%) S [2] [%] | p21 fold-induction at IC80 Dose [3] [fold] | IC50 [4, 9] [µM] | IC50 [4, 10] [µM] | further results
CCNCCCCNCCCCNC/C=C(/CS)CNCCCCNCCCCNCC [PrC-115] | 37 | – | – | – | – | 4100 | 1090 | IC50 [1, 8]: 83 µM
CNCCCNC [Mechanism Structure 2, reference compound] | – | – | – | – | – | – | – | protective activity against radiation-induced dermatitis ([5]; 8.7 Gy): neither molecule exhibited discernable protective activity
CCNCCCCNCCCCNCC=C(CNC)CNCCCCNCCCCNCC [PrC-119] | 89 | – | – | – | 1.80 | 470 | 202 | –
CCNCCCNCCCNCCCNCC [DENSPM] | – | – | – | – | – | – | – | cell cycle arrest reported in literature [6]: G1-specific cell cycle block that was reversible
CCNCCCCNCCCCNCC=C(CO)CNCCCCNCCCCNCC [PrC-118] | – | – | – | – | – | 78 | – | –
CCNCCCCNCCCCNCCCCNCC=C(CS)CNCCCCNCCCCNCCCCNCC [PrC-123] | 131 | 68 | 21 | 10 | 2.22 | – | – | IC50 [1, 8]: 117 µM
CC(C)S [Mechanism Structure 1, reference compound] | – | – | – | – | – | – | – | protective activity against radiation-induced dermatitis ([5]; 8.7 Gy): neither molecule exhibited discernable protective activity
CN[C@H]1CCc2cc(OC)c(OC)c(OC)c2-c2ccc(OC)c(=O)cc21 [Colcemid, reference compound] | – | 8 | 81 | 11 | 3.31 | – | – | –
NCC(CN)CS [PrC-211, 3-amino-2-aminomethyl-propane-1-thiol] | – | – | – | – | – | – | – | Dermatitis Score (% of irradiated field free of scab material) ([5]; 1400 mM PrC-211, vehicle 0:95:5 (ditto mark), cage 488): 60 ± 12%; concentration of topical aminothiol alone conferring complete protection against radiodermatitis ([5]; aminothiol alone, without epinephrine, 8.7 Gy): ~2200 mM
